Experimental data reported in patent US20230233584A1, “EXTENDED RELEASE 5-HT RECEPTOR AGONISTS FOR NEUROLOGICAL CONDITIONS” (Diamond Therapeutics Inc., priority 2020, published 2023).

Legend:
Long Evans rats = assay: 5-choice serial reaction time task (5CSRTT), acute dosing, standard conditions; assay type: in vivo; conditions: for pro-cognitive effect measured as % hit: p=0.05
Experimental: General: Experiments were conducted to test psilocybin doses in the range of 0.01-0.2 mg/kg psilocybin administered S.C. across progressive ratio (PR) and 5-choice serial reaction time task (5CSRTT) to examine the effect of psilocybin on endophenotypes of motivation and attention. In each study, a population of out-bred Long Evans rats was first tested as a group for response to the PR and 5CSRTT. Each group was then divided into subgroups by tertiles according to performance, and then exposed to various dose levels immediately prior to re-testing at various psilocybin dose levels.
The 5CSRTT involves evaluating test subject response to a brief visual stimulus (Higgins, Guy & Silenieks, Leonardo. (2017). Rodent Test of Attention and Impulsivity: The 5-Choice Serial Reaction Time Task: The 5-Choice Serial Reaction Time Task. 10.1002/cpph.27). Animals are trained to make a nose-poke response to a stimulus location in order to collect a food reward. The task allows the experimenter to measure animal performance in multiple domains including: • Attention • Impulsivity • Perseveration • Speed of response
A strength of the test is its flexible configuration to challenge test subjects: • Standard test conditions (0.75 s stimulus duration (SD), 5 s inter-trial interval (ITI), 100 trials) • Multiple short stimulus duration (mSD) (0.03-1 s SD) • Fixed long ITI (5 s vs. 10 s ITI) • Multiple ultrashort ITI (2-5 s ITI) • Extended 250 trials
Asterisk (*) indicates statistical significance vs. vehicle. (FIG. 3A).
When this population is segmented into tertiles according to performance based on accuracy (% correct, calculated as # correct/(# correct+# incorrect)*100), the lowest performing tertile (N=8) are considered to be low attentive and potentially representative of a low attentive endophenotype of depression (FIG. 6A). Low attentive rats also score poorly on % hit (FIG. 6B) and have a slower response speed (FIG. 6D). […] Asterisk (*) indicates statistical significance vs. vehicle.

[1] = Psilocybin and psilocin plasma pharmacokinetics after s.c. psilocybin; assay type: in vivo, rats; conditions: rats; for AUC0-tlast, Mean / Cmax, Mean / Cmax/Dose, Mean / tmax, Mean / AUC0-inf, Mean / AUC0-inf/Dose, Mean / Apparent t1/2, Mean / MRT0-inf, Mean: psilocybin in plasma
Experimental: Psilocybin doses of 0.05, 0.1, 1, 10 mg/kg were used to evaluate psilocybin and psilocin PK in rats. For the doses of psilocybin that positively effect behaviors in the low performers in the PR and 5CSRTT, e.g., 0.05-0.1 mg/kg, the corresponding Cm. of psilocin was ˜7±2 ng/ml at 30 minutes for 0.05 mg/kg, and at a dose of 0.1 mg/kg, the Cm. of psilocin was determined to be ˜12±3 ng/ml at 30 minutes (FIG. 5).
Details of the plasma concentration studies are shown in Tables 1-8 (psilocybin) and 9-16 (psilocin). Values in italics are below the lower level of quantitation (BLQ, <1 ng/mL) but were included in calculations. Values in bold and underlined are considered to be outliers and were omitted from calculations. Measured dosing solution concentrations were 0.0460, 0.0967, 0.948 and 9.65 mg/mL for 0.05, 0.1, 1 and 10 […].

[2] = Minipump infusion of psilocybin over 12 days: plasma/blood exposure; assay type: in vivo, rats; conditions: psilocybin minipump, days 4-12, rats
Experimental: A dose of psilocybin, which is free from perceptual and behavioral side effects, was dosed in rats (N=24) continuously over a period of 12 days using an Alzet minipump implanted in rats of approximately 380-390 g body weight. The pump was primed to deliver psilocybin at 5 mg/kg/day pump concentration. The target plasma concentration was 10 ng/ml psilocin with actual plasma concentration 9.3+1.3 ng/ml over the 12 day study period.
Blood was collected from rats on days 4, 8 and 12 to measure levels of psilocybin and psilocin in Group B rats. Blood was collected via saphenous bleed at a standard timepoint which will not interfere with 5-choice testing. Psilocin blood levels were in the range of 8-10 ng/ml over days 4-12, while psilocybin blood levels were in the range of 2-5 ng/ml over days 4-12 (FIG. 7A), corresponding to 10 ng/mL psilocin. […] The present observations recorded for psilocybin/psilocin are occurring at exposure levels of psilocin ˜10 ng/ml (e.g., FIG. 5), likely resulting in a low level of CNS 5-HT2A receptor occupancy, and which is insufficient to elicit cardinal signs of 5-HT2A receptor activation such as WDS/BMC in rats (e.g., FIG. 1B).

[3] = 0.05 mg/kg S.C., 24 rats, standard conditions
[4] = 0.05-0.1 mg/kg S.C., standard conditions

## CN(C)CCc1c[nH]c2cccc(OP(=O)(O)O)c12 [psilocybin, 4-phosphoryloxy-N,N-dimethyltryptamine]
Long Evans rats; [3]
  procognitive effect measured as % correct: slight non-significant increase
  pro-cognitive effect measured as % hit: increased
Long Evans rats; 0.05 mg/kg and 0.1 mg/kg S.C., low performers
  pro-cognitive effect measured as % hit: increased
Long Evans rats; 0.05 mg/kg, low attentive cohort compared with vehicle
  response speed: increased response speed
Long Evans rats; [4]
  performance: response speed, number of trials completed: no effect on response speed, or number of trials completed
  premature or perseverative responses: no effect on premature or perseverative responses
Long Evans rats; 0.05 and 0.1 mg/kg S.C., low performers
  pro-cognitive effect measured as % correct: slight non-significant increase
Long Evans rats; 0.05 and 0.1 mg/kg, low attentive subgroup (N=8) compared with vehicle
  effect on accuracy (% correct and % hit): strongly evident
Long Evans rats; low doses used in PR and 5CSRTT studies (0.025-0.2 mg/kg S.C.)
  detrimental effects on performance (motivation, motor control, attention, response speed): no detrimental effects
[1]; psilocybin 0.05 mg/kg s.c., 0.25 h
  Plasma concentration of psilocybin, Mean: 6.20 ng/mL
[1]; psilocybin 0.05 mg/kg s.c., 0.5 h
  Plasma concentration of psilocybin, Mean: 12.5 ng/mL
[1]; psilocybin 0.05 mg/kg s.c., 0.75 h
  Plasma concentration of psilocybin, Mean: 1.07 ng/mL
[1]; psilocybin 0.05 mg/kg s.c., 1 h
  Plasma concentration of psilocybin, Mean: 19.2 ng/mL
[1]; psilocybin 0.05 mg/kg s.c., 2 h
  Plasma concentration of psilocybin, Mean: 0.594 ng/mL
[1]; psilocybin 0.05 mg/kg s.c., 4 h
  Plasma concentration of psilocybin, Mean: 1.95 ng/mL
[1]; psilocybin 0.05 mg/kg s.c., 6 h
  Plasma concentration of psilocybin, Mean: 2.12 ng/mL
[1]; psilocybin 0.1 mg/kg s.c., 0.25 h
  Plasma concentration of psilocybin, Mean: 21.7 ng/mL
[1]; psilocybin 0.1 mg/kg s.c., 0.5 h
  Plasma concentration of psilocybin, Mean: 28.9 ng/mL
[1]; psilocybin 0.1 mg/kg s.c., 0.75 h
  Plasma concentration of psilocybin, Mean: 2.96 ng/mL
[1]; psilocybin 0.1 mg/kg s.c., 1 h
  Plasma concentration of psilocybin, Mean: 2.19 ng/mL
[1]; psilocybin 0.1 mg/kg s.c., 2 h
  Plasma concentration of psilocybin, Mean: 1.76 ng/mL
[1]; psilocybin 0.1 mg/kg s.c., 4 h
  Plasma concentration of psilocybin, Mean: 2.55 ng/mL
[1]; psilocybin 0.1 mg/kg s.c., 6 h
  Plasma concentration of psilocybin, Mean: 0.921 ng/mL
[1]; psilocybin 1.0 mg/kg s.c., 0.25 h
  Plasma concentration of psilocybin, Mean: 75.2 ng/mL
[1]; psilocybin 1.0 mg/kg s.c., 0.5 h
  Plasma concentration of psilocybin, Mean: 47.3 ng/mL
[1]; psilocybin 1.0 mg/kg s.c., 0.75 h
  Plasma concentration of psilocybin, Mean: 35.8 ng/mL
[1]; psilocybin 1.0 mg/kg s.c., 1 h
  Plasma concentration of psilocybin, Mean: 35.1 ng/mL
[1]; psilocybin 1.0 mg/kg s.c., 2 h
  Plasma concentration of psilocybin, Mean: 2.19 ng/mL
[1]; psilocybin 1.0 mg/kg s.c., 4 h
  Plasma concentration of psilocybin, Mean: 1.12 ng/mL
[1]; psilocybin 1.0 mg/kg s.c., 6 h
  Plasma concentration of psilocybin, Mean: 0.929 ng/mL
[1]; psilocybin 10 mg/kg s.c., 0.25 h
  Plasma concentration of psilocybin, Mean: 1030 ng/mL
[1]; psilocybin 10 mg/kg s.c., 0.5 h
  Plasma concentration of psilocybin, Mean: 1544 ng/mL
[1]; psilocybin 10 mg/kg s.c., 0.75 h
  Plasma concentration of psilocybin, Mean: 344 ng/mL
[1]; psilocybin 10 mg/kg s.c., 1 h
  Plasma concentration of psilocybin, Mean: 269 ng/mL
[1]; psilocybin 10 mg/kg s.c., 2 h
  Plasma concentration of psilocybin, Mean: 101 ng/mL
[1]; psilocybin 10 mg/kg s.c., 4 h
  Plasma concentration of psilocybin, Mean: 1.80 ng/mL
[1]; psilocybin 10 mg/kg s.c., 6 h
  Plasma concentration of psilocybin, Mean: 1.32 ng/mL
[1]; psilocybin 0.05 mg/kg s.c.
  AUC0-tlast, Mean: 10.7 ng·h/mL
  Cmax, Mean: 18.9 ng/mL
  Cmax/Dose, Mean: 377 kg·ng/mL/mg
  tmax, Mean: 36 min
[1]; psilocybin 0.1 mg/kg s.c.
  AUC0-tlast, Mean: 11.4 ng·h/mL
  Cmax, Mean: 31.4 ng/mL
  Cmax/Dose, Mean: 314 kg·ng/mL/mg
  tmax, Mean: 19.3 min
[1]; psilocybin 1.0 mg/kg s.c.
  AUC0-inf, Mean: 47.9 ng·h/mL
  AUC0-inf/Dose, Mean: 47.9 kg·ng·h/mL/mg
  AUC0-tlast, Mean: 53.1 ng·h/mL
  Apparent t1/2, Mean: 26.7 min
  Cmax, Mean: 78.3 ng/mL
  Cmax/Dose, Mean: 78.3 kg·ng/mL/mg
  MRT0-inf, Mean: 44.8 min
  tmax, Mean: 21.4 min
[1]; psilocybin 10 mg/kg s.c.
  AUC0-inf, Mean: 2156 ng·h/mL
  AUC0-inf/Dose, Mean: 216 kg·ng·h/mL/mg
  AUC0-tlast, Mean: 1707 ng·h/mL
  Apparent t1/2, Mean: 34 min
  Cmax, Mean: 3595 ng/mL
  Cmax/Dose, Mean: 359 kg·ng/mL/mg
  MRT0-inf, Mean: 43 min
  tmax, Mean: 30 min
[2]
  psilocybin blood levels: 2 to 5 ng/mL
